# Paper PMC4297292 (Cancer Cell, 2015)
# Experiments:
# [1] = Pharmacokinetic studies, plasma, oral and intravenous dosing; format: in vivo, Balb/c mice
# [2] = test system: Ba/F3 cells transformed with BRAF^T529N,V600E; assay: Growth of Ba/F3 cells; format: cell-based; settings: [3H]-thymidine incorporation
# [3] = test system: melanoma and colorectal cancer cell lines that are mutant for BRAF; assay: Cell growth inhibition; format: cell-based; settings: Figures 2A and 2B
# COT = COT (Homo sapiens, UniProt P41279); assay: Z'-LYTE kinase assay; format: biochemical
# Chain of COT (P41279 whole entry): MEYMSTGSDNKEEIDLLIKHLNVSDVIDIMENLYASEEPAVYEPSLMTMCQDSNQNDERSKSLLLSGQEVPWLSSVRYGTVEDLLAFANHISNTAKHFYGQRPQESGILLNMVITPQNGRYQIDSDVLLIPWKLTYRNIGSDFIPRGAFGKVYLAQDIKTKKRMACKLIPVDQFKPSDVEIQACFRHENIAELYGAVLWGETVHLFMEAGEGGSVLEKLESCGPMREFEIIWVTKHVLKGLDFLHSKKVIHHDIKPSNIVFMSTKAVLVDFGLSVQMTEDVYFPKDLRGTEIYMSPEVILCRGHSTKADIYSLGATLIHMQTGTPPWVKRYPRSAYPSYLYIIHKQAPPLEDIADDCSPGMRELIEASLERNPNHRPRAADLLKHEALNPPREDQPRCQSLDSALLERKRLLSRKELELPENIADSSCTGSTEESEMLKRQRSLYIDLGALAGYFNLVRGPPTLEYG
# [4] = test system: caspase 3 and PARP cleavage in patient #2 cells; assay: PARP and caspase 3 immunoblot; format: cell-based; settings: 1 μM; 4 hr
# [5] = test system: RAS mutant melanoma and colorectal cancer cells; assay: Cell growth inhibition; format: cell-based; settings: Figures 2A and 2B
# PDX from patient #5 = assay: PDX growth; format: in vivo, NSG mice
# PDX from patient #13 = assay: PDX growth; format: in vivo, NSG mice; settings: 20 mg/kg daily gavage; patient #13 PDX study
# [6] = test system: panel of 63 protein kinases; assay: Efficacy against a panel of protein kinases; format: biochemical; settings: 1 μM, percent activity compared to DMSO
# [7] = test system: patient #2 cells (vemurafenib-resistant melanoma); assay: Cell proliferation assay; format: cell-based; settings: CellTiter Glo
# patient #3 tumor cells = assay: Cell proliferation assay; format: cell-based; settings: CellTiter Glo
# [8] = test system: NRAS mutant D04 xenograft; assay: Xenograft growth; format: in vivo; settings: 20 mg/kg oral daily; nude mice
# [9] = test system: MEK in NRAS mutant D04 cells; assay: pMEK/pERK immunoblot; format: cell-based; settings: 24 hr
# [10] = test system: patient #2 cell xenograft; assay: Xenograft growth; format: in vivo, nude mice
# SRC = SRC (Homo sapiens, UniProt P12931); assay: Z'-LYTE kinase assay; format: biochemical; settings: inhibits SRC at
# Chain of SRC (P12931 whole entry): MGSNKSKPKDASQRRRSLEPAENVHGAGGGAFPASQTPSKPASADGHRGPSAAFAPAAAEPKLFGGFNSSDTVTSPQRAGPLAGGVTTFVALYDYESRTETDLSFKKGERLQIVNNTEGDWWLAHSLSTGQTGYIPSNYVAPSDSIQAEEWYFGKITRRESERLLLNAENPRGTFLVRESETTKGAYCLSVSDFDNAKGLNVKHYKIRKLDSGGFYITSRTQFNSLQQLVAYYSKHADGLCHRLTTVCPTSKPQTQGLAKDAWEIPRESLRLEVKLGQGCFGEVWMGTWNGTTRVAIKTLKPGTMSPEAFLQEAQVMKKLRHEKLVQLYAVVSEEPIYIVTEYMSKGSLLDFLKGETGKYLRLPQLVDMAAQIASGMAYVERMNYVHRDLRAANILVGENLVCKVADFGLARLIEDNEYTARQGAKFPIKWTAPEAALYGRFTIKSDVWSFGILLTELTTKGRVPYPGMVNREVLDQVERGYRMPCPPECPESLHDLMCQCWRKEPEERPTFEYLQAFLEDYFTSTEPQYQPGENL
# NRAS mutant D04 cells = assay: Cell proliferation assay; format: cell-based; settings: CellTiter Glo
# [11] = test system: PLX4720-resistant PDX from patient #1; assay: PDX growth; format: in vivo, NSG mice; settings: PLX4720 45 mg/kg, CCT compounds 20 mg/kg daily gavage
# [12] = test system: cancer cells that are wild-type for BRAF and NRAS; assay: Cell growth inhibition; format: cell-based; settings: Figure 2A, in general
# CRAF = CRAF (Homo sapiens, UniProt P04049, Y340D/Y341D); assay: Z'-LYTE kinase assay; format: biochemical; settings: Table 1
# Chain of CRAF (P04049 306-648 Y340D/Y341D limits assumed): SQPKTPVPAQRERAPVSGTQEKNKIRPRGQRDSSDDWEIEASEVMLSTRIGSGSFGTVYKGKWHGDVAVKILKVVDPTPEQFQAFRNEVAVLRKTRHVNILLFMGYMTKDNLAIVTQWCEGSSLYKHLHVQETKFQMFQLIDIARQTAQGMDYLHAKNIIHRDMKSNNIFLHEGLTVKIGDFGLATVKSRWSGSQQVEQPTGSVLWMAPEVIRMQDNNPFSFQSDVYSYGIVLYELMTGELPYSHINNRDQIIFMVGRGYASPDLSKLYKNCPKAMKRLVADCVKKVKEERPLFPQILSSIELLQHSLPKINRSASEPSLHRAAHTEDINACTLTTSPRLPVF
# [13] = Single and repeat dose tolerability / oral toxicity; format: in vivo, CD-1 mice; settings: 30 mg/kg for 4 days; oral gavage
# [14] = test system: MEK, ERK and SRC/SFKs in patient #2 cells; assay: pMEK, pERK, pSFK immunoblot; format: cell-based; settings: 4 hr
# BRAF^T529N,V600E = assay: BRAF kinase inhibition, gatekeeper mutant; format: biochemical
# MEK1 = MEK1 (Homo sapiens, UniProt Q02750); assay: Z'-LYTE kinase assay; format: biochemical
# Chain of MEK1 (Q02750 whole entry): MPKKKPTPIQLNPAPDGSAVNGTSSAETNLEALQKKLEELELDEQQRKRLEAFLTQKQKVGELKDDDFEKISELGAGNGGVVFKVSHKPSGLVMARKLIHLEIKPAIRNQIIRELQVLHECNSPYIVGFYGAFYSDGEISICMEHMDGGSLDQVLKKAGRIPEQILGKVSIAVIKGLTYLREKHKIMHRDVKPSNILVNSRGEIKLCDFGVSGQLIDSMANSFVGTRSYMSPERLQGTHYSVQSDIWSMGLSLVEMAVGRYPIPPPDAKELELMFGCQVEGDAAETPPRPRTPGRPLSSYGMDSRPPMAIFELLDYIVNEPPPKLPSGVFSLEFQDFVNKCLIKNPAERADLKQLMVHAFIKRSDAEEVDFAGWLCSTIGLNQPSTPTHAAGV
# SK-Mel 23 cells = assay: Cell growth inhibition; format: cell-based; settings: Figure 2A
# [15] = test system: ERK and SRC in patient #3 PDX; assay: pERK/pSFK immunoblot in PDX; format: in vivo, mice; settings: PLX4720 45 mg/kg, CCT compounds 20 mg/kg daily gavage
# [16] = test system: cell lines from patient #5 tumor; assay: Cell proliferation assay; format: cell-based; settings: CellTiter Glo
# [17] = test system: MEK and ERK in WM266.4 cells (BRAF mutant); assay: pMEK/pERK immunoblot; format: cell-based; settings: 24 hr
# A375 cells = assay: Colony formation; format: cell-based; settings: 0.5 μM; 20 days
# patient #3 PDX = assay: PDX growth; format: in vivo, NSG mice
# patient #4 PDX = assay: PDX growth; format: in vivo, NSG mice
# [18] = test system: ERK activity in SK-Mel 23 cells; assay: pERK immunoblot; format: cell-based; settings: 1 μM; 4 hr
# A375/R cells = assay: Cell proliferation assay; format: cell-based; settings: CellTiter Glo
# [19] = test system: BRAF^V600E A375 xenograft; assay: Xenograft growth; format: in vivo, nude mice; settings: 20 mg/kg/day oral, 7 days/week; nude mice
# BRAF^V600E A375 cells = assay: Cell proliferation assay; format: cell-based; settings: CellTiter Glo
# LCK = LCK (Homo sapiens, UniProt P06239); assay: Z'-LYTE kinase assay; format: biochemical
# Chain of LCK (P06239 whole entry): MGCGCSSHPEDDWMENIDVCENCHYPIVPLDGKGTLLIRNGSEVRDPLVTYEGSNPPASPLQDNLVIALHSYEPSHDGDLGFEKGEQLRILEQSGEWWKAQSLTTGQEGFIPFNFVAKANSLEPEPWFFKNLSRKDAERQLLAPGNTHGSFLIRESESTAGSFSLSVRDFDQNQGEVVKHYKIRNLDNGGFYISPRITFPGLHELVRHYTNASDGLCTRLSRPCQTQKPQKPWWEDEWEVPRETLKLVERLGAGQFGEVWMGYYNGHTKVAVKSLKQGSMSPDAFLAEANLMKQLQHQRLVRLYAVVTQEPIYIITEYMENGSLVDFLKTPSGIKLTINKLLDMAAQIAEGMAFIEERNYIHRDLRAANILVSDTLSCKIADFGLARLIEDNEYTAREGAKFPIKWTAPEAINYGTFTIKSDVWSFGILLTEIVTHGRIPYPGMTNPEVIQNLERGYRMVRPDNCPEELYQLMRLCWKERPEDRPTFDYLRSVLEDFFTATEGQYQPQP
# [20] = test system: A375/R xenograft (PLX4720-resistant A375); assay: Xenograft growth; format: in vivo, nude mice; settings: 20 mg/kg oral daily
# BRAF = BRAF (Homo sapiens, UniProt P15056); assay: Z'-LYTE kinase assay; format: biochemical
# Chain of BRAF (P15056 whole entry): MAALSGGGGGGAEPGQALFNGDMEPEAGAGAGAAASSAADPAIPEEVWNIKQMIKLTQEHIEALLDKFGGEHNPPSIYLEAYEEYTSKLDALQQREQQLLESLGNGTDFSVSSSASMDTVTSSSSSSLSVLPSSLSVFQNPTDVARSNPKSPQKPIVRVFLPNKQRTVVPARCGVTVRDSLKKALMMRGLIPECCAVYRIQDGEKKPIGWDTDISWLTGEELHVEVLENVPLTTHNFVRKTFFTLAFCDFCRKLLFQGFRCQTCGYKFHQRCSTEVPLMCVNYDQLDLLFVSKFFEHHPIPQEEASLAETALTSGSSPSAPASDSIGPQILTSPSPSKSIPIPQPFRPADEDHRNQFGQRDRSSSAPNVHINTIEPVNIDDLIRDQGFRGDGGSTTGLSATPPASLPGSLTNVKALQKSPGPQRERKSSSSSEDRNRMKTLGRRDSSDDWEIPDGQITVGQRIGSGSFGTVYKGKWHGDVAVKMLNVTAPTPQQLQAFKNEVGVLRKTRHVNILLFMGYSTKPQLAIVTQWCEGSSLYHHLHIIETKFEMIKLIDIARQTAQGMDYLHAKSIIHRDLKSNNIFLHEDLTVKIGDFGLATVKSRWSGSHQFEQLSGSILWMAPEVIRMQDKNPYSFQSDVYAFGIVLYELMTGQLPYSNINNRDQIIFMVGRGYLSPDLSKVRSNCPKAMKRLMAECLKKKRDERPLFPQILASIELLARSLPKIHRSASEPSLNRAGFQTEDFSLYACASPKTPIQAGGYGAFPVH
# [21] = PLX4720 45 mg/kg, CCT compounds 20 mg/kg daily gavage, NSG mice
compound,measurement,setting,value
CSc1cc(Oc2ccnc3[nH]c(=O)cnc23)ccc1NC(=O)Nc1cc(C(C)(C)C)nn1-c1ccccc1 [CCT241161],bioavailability,"[1]; Balb/c, mouse, plasma, po, 10 mg/kg",~55%
same,area under the curve,[1]; oral 10 mg/kg/day,"~275,000 nM.hr"
same,plasma concentration,"[1]; oral 10 mg/kg/day, at 14 hr, 10 mg/kg/day",~1 µM
same,"fold less sensitive, Ba/F3 cells transformed with BRAF^T529N,V600E vs BRAF^V600E",[2],19 fold
same,activity against BRAF mutant cell lines,[3],active
same,IC50,COT,> 10 µM
same,caspase 3 and PARP cleavage (apoptosis),[4],induce caspase 3 and PARP cleavage
same,activity against RAS mutant cells,[5],also active
same,body weight,"PDX from patient #5; 20 mg/kg daily gavage, patient #5 PDX study",did not observe any loss in body weight
same,PDX sensitivity compared with PLX4720,PDX from patient #5; [21],more sensitive
same,body weight,PDX from patient #13,no body weight loss was observed
same,kinases inhibited in a panel of protein kinases,[6],"only inhibit SRC, LCK, and the p38 mitogen-activated protein kinases (MAPKs)"
same,cell line sensitivity,[7],sensitive
same,cell sensitivity,patient #3 tumor cells,sensitive
same,xenograft growth,[8],inhibit the growth
same,effect on MEK in NRAS mutant cells,[9],inhibit rather than activate MEK
same,body weight,"[10]; 20 mg/kg oral daily, patient #2 xenograft study",without causing any body weight loss
same,xenograft growth,"[10]; PLX4720 90 mg/kg, CCT compounds 20 mg/kg oral daily, nude mice",complete inhibition
same,IC50,SRC,15 nM
same,"NRAS mutant cell growth inhibition, compared with PLX4720",NRAS mutant D04 cells,more efficiently than does PLX4720
same,PDX sensitivity,[11],remains sensitive
same,activity against BRAF and NRAS wild-type cancer cells,[12],not active
same,IC50,CRAF,6 nM
same,weight loss,[13],do not cause significant weight loss
same,inhibition of SFKs,"[14]; 0.5 µM, Figure S3B",also inhibit SFKs
same,"inhibition of MEK, ERK, and SRC",[14]; 1 μM,"inhibit MEK, ERK, and SRC"
same,"fold less active against BRAF^T529N,V600E than BRAF^V600E","BRAF^T529N,V600E",42 fold
same,IC50,MEK1,> 10 µM
same,sensitivity of SK-Mel 23 cells,SK-Mel 23 cells,sensitive
same,inhibition of ERK and SRC in PDX,[15],inhibit ERK and SRC
same,cell sensitivity compared with PLX4720,[16],more sensitive
same,inhibition of MEK and ERK,[17],inhibit MEK and ERK
same,colony formation under continual exposure,A375 cells,no cells are able to grow
same,body weight,"patient #3 PDX; 20 mg/kg daily gavage, patient #3 PDX study",without causing body weight loss
same,PDX growth,patient #3 PDX; [21],tumor regression
same,body weight,"patient #4 PDX; 20 mg/kg daily gavage, patient #4 PDX study",do not cause body weight loss
same,PDX sensitivity,patient #4 PDX; [21],sensitive
same,ERK activity in SK-Mel 23 cells,[18],sensitive
same,sensitivity of PLX4720-resistant A375 cells,A375/R cells,still sensitive
same,xenograft growth,[19],tumor regression
same,"growth inhibition of BRAF mutant melanoma cells, compared with PLX4720",BRAF^V600E A375 cells,more potently than PLX4720
same,IC50,LCK,3 nM
same,body weight,[20]; A375/R xenograft study,without causing any body weight loss
same,xenograft growth,[20]; nude mice,inhibit the growth
same,IC50,BRAF,252 nM
